According to article PMC5544254 (Molecular bioSystems, 2017):

Test system: SMNDC1_12PC RNA (5′-UTR SMNDC1 mRNA G quadruplex)
Test: Steady-state fluorescence spectroscopy titration, PC reporter quenching
Type: binding
Conditions: BSA titrated into SMNDC1_12PC RNA, control experiment, Supplemental Figure 1D

For bovine serum albumin [BSA], the “change of steady state fluorescence of PC reporter (non-specific control)” value was “did not change”.
